Test results: patent US20230027361A1, “METTL3 MODULATORS” (priority 2019, published 2023)
Like-named read-outs stand apart in the source and are kept apart here.

How the values were obtained:
PRMT5-MEP50 = PRMT5-MEP50 (Homo sapiens, UniProt O14744); test: PRMT5 Assay (PRMT5 biochemical assay)
Experimental: Assays were performed in a 25 μl-volume in 384-well V-bottom polypropylene microplates (Greiner Bio-One, cat. No. 781280) at ambient temperature. Optimized 1× assay buffer was 20 mM Tris-HCl pH 8.0, 1 mM DTT, […]. For compound screening PRMT5-MEP50 (final concentration, f.c.=2.5 nM) was added using a Multidrop Combi (ThermoFisher Scientific, Waltham, Mass.) and preincubated for 5 min. Reactions were started by adding 3′ biotinylated histone H4 peptide acetylated on serine 1 (Ac-[…]-Biotin) (f.c.=100 nM) and 3H-SAM (f.c.=250 nM) substrates. Reactions proceeded for 60 minutes and were quenched with excess non-radioactive SAM (f.c.=15 μM). The reactions were then transferred to streptavidin-coated flashplates and incubated for 2 hours at 25° C. Following two washing cycles with 0.1% Tween-20, the plates were sealed and read on a TopCount (PerkinElmer, Waltham, Mass.) plate-based scintillation counter. For determination of kinetic parameters, reaction times were optimized so that measurements were taken during the initial velocity phase of the reaction.

METTL1/WDR4 = METTL1/WDR4 (Homo sapiens, UniProt Q9UBP6); test: METTL1 Assay (METTL1 biochemical assay)
Sequence of METTL1/WDR4 (Q9UBP6 whole entry, species assumed): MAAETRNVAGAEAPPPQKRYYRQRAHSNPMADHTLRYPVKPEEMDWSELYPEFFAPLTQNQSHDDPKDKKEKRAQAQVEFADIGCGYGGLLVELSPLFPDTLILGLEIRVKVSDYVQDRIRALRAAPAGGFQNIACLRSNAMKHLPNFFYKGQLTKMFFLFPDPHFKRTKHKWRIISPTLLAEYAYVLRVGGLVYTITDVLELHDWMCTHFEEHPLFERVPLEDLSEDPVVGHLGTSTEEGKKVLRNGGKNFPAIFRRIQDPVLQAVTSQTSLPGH
Sequence of METTL1/WDR4 (P57081 whole entry partner, species assumed): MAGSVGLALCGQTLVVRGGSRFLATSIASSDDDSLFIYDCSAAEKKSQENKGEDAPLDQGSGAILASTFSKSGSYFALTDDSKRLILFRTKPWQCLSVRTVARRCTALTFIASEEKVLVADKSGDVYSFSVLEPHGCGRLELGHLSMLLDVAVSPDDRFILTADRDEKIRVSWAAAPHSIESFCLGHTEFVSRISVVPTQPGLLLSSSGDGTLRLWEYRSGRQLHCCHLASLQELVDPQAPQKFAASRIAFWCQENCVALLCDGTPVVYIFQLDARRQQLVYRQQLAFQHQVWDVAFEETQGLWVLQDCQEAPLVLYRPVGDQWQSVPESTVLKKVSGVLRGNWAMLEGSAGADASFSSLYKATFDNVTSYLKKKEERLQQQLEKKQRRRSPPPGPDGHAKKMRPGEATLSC
Experimental: Assays were performed in a 25 μl-volume in 384-well V-bottom polypropylene microplates (Greiner Bio-One, cat. No. 781280) at ambient temperature. Optimized 1× assay buffer was 20 mM HEPES pH 7.5, 50 mM KCl, 250 μM MgCl2, 1 mM DTT, 0.01% Tween, 0.01% BSG, 0.004 U/μl RNAseOUT (cat. No. 10777019, ThermoFisher Scientific, Waltham, Mass.). For compound screening METTL1/WDR4 (final concentration, f.c.=6.25 nM) was added using a Multidrop Combi (ThermoFisher Scientific, Waltham, Mass.) and preincubated for 5 min. Reactions were started by adding 3′ biotinylated RNA ([…]-biotin) (f.c.=25 nM) and 3H-SAM (f.c.=60 nM) substrates. Reactions proceeded for 20 minutes and were quenched with excess non-radioactive SAM (f.c.=15 μM). The reactions were then transferred to streptavidin-coated flashplates and incubated for 2 hours at 25° C. Following two washing cycles with 0.1% Tween-20, the plates were sealed and read on a TopCount (PerkinElmer, Waltham, Mass.) plate-based scintillation counter. For determination of kinetic parameters, reaction times were optimized so that measurements were taken during the initial velocity phase of the reaction.

METTL3/METTL14 = METTL3/METTL14 (Homo sapiens, UniProt Q86U44); test: METTL3-14 Standard Enzyme Assay (METTL3 biochemical assay)
Sequence of METTL3/METTL14 (Q86U44 whole entry, species assumed): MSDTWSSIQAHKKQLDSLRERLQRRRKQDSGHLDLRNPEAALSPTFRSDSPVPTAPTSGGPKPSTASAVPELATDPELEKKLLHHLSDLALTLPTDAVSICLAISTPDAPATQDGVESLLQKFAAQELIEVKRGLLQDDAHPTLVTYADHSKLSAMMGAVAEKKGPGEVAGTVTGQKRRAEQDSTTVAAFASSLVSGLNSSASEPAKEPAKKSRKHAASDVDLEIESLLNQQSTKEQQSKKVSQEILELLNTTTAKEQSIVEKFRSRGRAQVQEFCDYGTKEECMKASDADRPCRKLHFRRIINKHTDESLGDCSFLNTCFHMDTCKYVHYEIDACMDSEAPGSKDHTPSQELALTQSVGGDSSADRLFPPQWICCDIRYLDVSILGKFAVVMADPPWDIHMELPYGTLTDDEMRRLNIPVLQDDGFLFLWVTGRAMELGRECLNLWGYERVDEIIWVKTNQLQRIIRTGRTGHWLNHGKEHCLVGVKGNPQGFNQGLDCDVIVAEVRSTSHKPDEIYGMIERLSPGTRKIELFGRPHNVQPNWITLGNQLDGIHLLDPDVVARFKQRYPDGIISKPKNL
Sequence of METTL3/METTL14 (Q9HCE5 whole entry partner, species assumed): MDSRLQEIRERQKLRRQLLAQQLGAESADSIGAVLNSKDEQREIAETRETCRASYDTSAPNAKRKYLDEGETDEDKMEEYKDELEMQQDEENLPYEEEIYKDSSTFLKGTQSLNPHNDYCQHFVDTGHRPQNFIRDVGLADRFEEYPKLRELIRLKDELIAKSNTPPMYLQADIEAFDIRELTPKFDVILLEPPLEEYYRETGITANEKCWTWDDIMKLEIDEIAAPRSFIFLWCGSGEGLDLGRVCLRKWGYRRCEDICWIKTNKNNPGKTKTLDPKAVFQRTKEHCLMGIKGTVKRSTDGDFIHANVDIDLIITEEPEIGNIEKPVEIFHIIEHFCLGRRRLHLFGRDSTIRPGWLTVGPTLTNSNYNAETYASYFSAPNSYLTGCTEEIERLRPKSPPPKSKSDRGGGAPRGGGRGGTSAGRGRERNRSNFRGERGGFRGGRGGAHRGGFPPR
Experimental: Assays were performed in a 25 μl-volume in 384-well V-bottom polypropylene microplates (Greiner Bio-One, cat. No. 781280) at ambient temperature. Optimized 1× assay buffer was 20 mM HEPES pH 7.5, 50 mM KCl, 250 μM MgCl2, 1 mM DTT, 0.01% Tween, 0.01% BSG, 0.004 U/μl RNAseOUT (cat. No. 10777019, ThermoFisher Scientific, Waltham, Mass.). For compound screening METTL3/METTL14 (final concentration, f.c.=2.5 nM) was added using a Multidrop Combi (ThermoFisher Scientific, Waltham, Mass.) and preincubated for 5 min. Reactions were started by adding 3′ biotinylated RNA ([…]-biotin) (f.c.=100 nM) and 3H-SAM (f.c.=100 nM) substrates. Reactions proceeded for 30 minutes and were quenched with excess non-radioactive SAM (f.c.=15 μM). The reactions were then transferred to streptavidin-coated flashplates and incubated for 2 hours at 25° C. Following two washing cycles with 0.1% Tween-20, the plates were sealed and read on a TopCount (PerkinElmer, Waltham, Mass.) plate-based scintillation counter. For determination of kinetic parameters, reaction times were optimized so that measurements were taken during the initial velocity phase of the reaction.

[1] = PRMT5 biochemical assay; read-out: PRMT5 IC50
[2] = read-out: METTL1 IC50; METTL1 biochemical assay
[3] = METTL3 biochemical assay; read-out: METTL3 IC50
[4] = METTL1 biochemical assay; read-out: METTL1 IC50

Sequence of PRMT5-MEP50 (O14744 whole entry): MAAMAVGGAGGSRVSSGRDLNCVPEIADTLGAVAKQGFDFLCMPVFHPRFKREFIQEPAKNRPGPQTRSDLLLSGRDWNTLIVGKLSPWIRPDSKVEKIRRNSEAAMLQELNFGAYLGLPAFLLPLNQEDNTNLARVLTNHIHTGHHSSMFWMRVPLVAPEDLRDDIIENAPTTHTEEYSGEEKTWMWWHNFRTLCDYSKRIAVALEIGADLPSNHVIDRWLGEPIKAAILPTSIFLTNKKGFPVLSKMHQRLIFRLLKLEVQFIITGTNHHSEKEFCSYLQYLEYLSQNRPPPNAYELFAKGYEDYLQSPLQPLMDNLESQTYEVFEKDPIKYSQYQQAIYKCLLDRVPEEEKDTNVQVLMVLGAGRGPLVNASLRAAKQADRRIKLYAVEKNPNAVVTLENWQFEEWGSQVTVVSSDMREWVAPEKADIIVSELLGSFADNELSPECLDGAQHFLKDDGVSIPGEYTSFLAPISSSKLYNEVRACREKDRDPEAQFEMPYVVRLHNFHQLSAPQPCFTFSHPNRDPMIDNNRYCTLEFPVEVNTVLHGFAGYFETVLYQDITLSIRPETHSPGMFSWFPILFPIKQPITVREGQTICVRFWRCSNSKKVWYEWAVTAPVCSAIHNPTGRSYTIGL
Sequence of PRMT5-MEP50 (Q9BQA1 whole entry partner): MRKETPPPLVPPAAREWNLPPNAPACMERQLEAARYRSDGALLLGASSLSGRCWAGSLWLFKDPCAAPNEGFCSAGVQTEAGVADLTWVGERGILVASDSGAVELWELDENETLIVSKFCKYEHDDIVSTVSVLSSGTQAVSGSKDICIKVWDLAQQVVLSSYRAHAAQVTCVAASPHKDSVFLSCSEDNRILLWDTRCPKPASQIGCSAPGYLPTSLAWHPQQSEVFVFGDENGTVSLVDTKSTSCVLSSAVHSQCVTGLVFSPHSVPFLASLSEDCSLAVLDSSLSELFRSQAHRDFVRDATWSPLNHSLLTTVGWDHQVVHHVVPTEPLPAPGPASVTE

| SMILES | IC50 (PRMT5-MEP50; [1]) [nM] | IC50 (METTL1/WDR4; [2]) [nM] | IC50 (METTL3/METTL14; [3]) [nM] | IC50 (PRMT5-MEP50; read-out: PRMT5 IC50; PRMT5 biochemical assay) [nM] | IC50 (METTL1/WDR4; [4]) [nM] | IC50 (METTL3/METTL14; read-out: METTL3 IC50; METTL3 biochemical assay) [nM] |
| --- | --- | --- | --- | --- | --- | --- |
| CNc1ccc2ccc(OC[C@H]3O[C@@H](n4cc(C5CCC(F)(F)CC5)c5c(N)ncnc54)[C@H](O)[C@@H]3O)cc2n1 [I-4] | 10 to 100 | > 1000 | < 10 |  |  |  |
| Cc1cn([C@@H]2O[C@H](COc3ccc4ccc(N)nc4c3)[C@@H](O)[C@H]2O)c2ncnc(N)c12 [I-15] | 100 to 1000 | > 1000 | > 1000 |  |  |  |
| Cc1cn([C@@H]2O[C@H](COc3ccc4ccc(NCC5CC5)nc4c3)[C@@H](O)[C@H]2O)c2ncnc(N)c12 [I-20] | 100 to 1000 | > 1000 | > 1000 |  |  |  |
| CNc1ccc2ccc(OC[C@H]3O[C@@H](n4cc(C)c5c(N)ncnc54)[C@H](O)[C@@H]3O)cc2n1 [I-22] | 100 to 1000 | > 1000 | > 1000 |  |  |  |
| CNc1ccc2ccc(OC[C@H]3O[C@@H](n4cc(Br)c5c(N)ncnc54)C[C@@H]3O)cc2n1 [I-47] | 100 to 1000 | > 1000 | < 10 |  |  |  |
| Nc1ccc2ccc(CC[C@H]3C[C@@H](n4cc([C@@H]5CCOC5)c5c(N)ncnc54)[C@H](O)[C@@H]3O)cc2n1 [I-49] | < 10 | > 1000 | 100 to 1000 |  |  |  |
| Nc1ccc2ccc(CC[C@H]3C[C@@H](n4cc([C@H]5CCOC5)c5c(N)ncnc54)[C@H](O)[C@@H]3O)cc2n1 [I-53] | < 10 | > 1000 | 100 to 1000 |  |  |  |
| Cc1cc2c(N)ncnc2n1[C@@H]1C[C@H](COc2ccc3ccc(N)nc3c2)[C@@H](O)[C@H]1O [I-56] | < 10 | > 1000 | > 1000 |  |  |  |
| Cc1cc2c(N)ncnc2n1[C@@H]1C[C@H](CCc2ccc3nc(N)ccc3c2)[C@@H](O)[C@H]1O [I-57] | 10 to 100 | > 1000 | > 1000 |  |  |  |
| CNc1ccc2ccc(CC[C@H]3C[C@@H](n4cc(C5CCOCC5)c5c(N)ncnc54)[C@H](O)[C@@H]3O)cc2n1 [I-58] | < 10 | > 1000 | 10 to 100 |  |  |  |
| Cc1cc2c(NCCc3ccccc3)ncnc2n1[C@@H]1C[C@H](CCc2ccc3ccc(N)nc3c2)[C@@H](O)[C@H]1O [I-61] | < 10 | > 1000 | > 1000 |  |  |  |
| CCCc1cn([C@@H]2C[C@H](CCc3ccc4ccc(N)nc4c3)[C@@H](O)[C@H]2O)c2ncnc(N)c12 [I-62] | < 10 | > 1000 | 100 to 1000 |  |  |  |
| Cn1cc(-c2cn([C@@H]3C[C@H](CCc4ccc5ccc(N)nc5c4)[C@@H](O)[C@H]3O)c3ncnc(N)c23)cn1 [I-63] |  |  |  | < 10 | > 1000 | 100 to 1000 |
| CNc1ccc2cc(CC[C@H]3C[C@@H](n4cc(C)c5c(N)ncnc54)[C@H](O)[C@@H]3O)ccc2n1 [I-64] | 10 to 100 | > 1000 | 100 to 1000 |  |  |  |
| Cc1cc2c(N)ncnc2n1[C@@H]1C[C@H](CCc2ccc3ccc(N)nc3c2)[C@@H](O)[C@H]1O [I-65] | < 10 | > 1000 | > 1000 |  |  |  |
| CNc1ccc2ccc(OC[C@H]3O[C@@H](n4cnc5c(N)ncnc54)[C@H](O)[C@@H]3O)cc2n1 [I-76] | < 10 | > 1000 | 10 to 100 |  |  |  |
| Nc1ncnc2c1ccn2[C@@H]1O[C@H](COc2ccc3ccc(N4CCOCC4)nc3c2)[C@@H](O)[C@H]1O [I-77] | 100 to 1000 | > 1000 | 10 to 100 |  |  |  |
| Nc1ccc2ccc(OC[C@H]3O[C@H](n4ccc5c(N)ncnc54)[C@H](O)[C@@H]3O)cc2n1 [I-79] | 100 to 1000 | > 1000 | > 1000 |  |  |  |
| Nc1ccc2ccc(OC[C@H]3O[C@@H](n4ccc5c(N)ncnc54)[C@H](O)[C@@H]3O)cc2n1 [I-80] | < 10 | > 1000 | 10 to 100 |  |  |  |

| SMILES | IC50 (PRMT5-MEP50; [1]) [nM] | IC50 (METTL1/WDR4; [2]) [nM] | IC50 (METTL3/METTL14; [3]) [nM] | IC50 (PRMT5-MEP50; read-out: PRMT5 IC50; PRMT5 biochemical assay) [nM] | IC50 (METTL1/WDR4; [4]) [nM] | IC50 (METTL3/METTL14; read-out: METTL3 IC50; METTL3 biochemical assay) [nM] |
| --- | --- | --- | --- | --- | --- | --- |
| Nc1ncnc2c1ccn2[C@@H]1C[C@H](CCc2ccc3c(OCC4CC4)ccnc3c2)[C@@H](O)[C@H]1O [I-85] | < 10 | > 1000 | > 1000 |  |  |  |
| Nc1ncnc2c1ccn2[C@@H]1C[C@H](CCc2ccc3c(OCc4ccccc4)ccnc3c2)[C@@H](O)[C@H]1O [I-86] | < 10 | > 1000 | > 1000 |  |  |  |
| CNc1ccc2cc(F)c(CC[C@H]3C[C@@H](n4ccc5c(N)ncnc54)[C@H](O)[C@@H]3O)cc2n1 [I-87] | < 10 | > 1000 | 10 to 100 |  |  |  |
| Nc1ncnc2c1ccn2[C@@H]1C[C@H](CCc2ccc3[nH]cnc3c2)[C@@H](O)[C@H]1O [I-88] | < 10 | > 1000 | > 1000 |  |  |  |
| O[C@@H]1[C@@H](CCc2ccc3[nH]ncc3c2)C[C@@H](n2ccc3c(NCCc4ccccc4)ncnc32)[C@@H]1O [I-89] | 100 to 1000 | > 1000 | > 1000 |  |  |  |
| Nc1ccc2ccc(OC[C@H]3C[C@@H](n4ccc5c(NCCc6ccccc6)ncnc54)[C@H](O)[C@@H]3O)cc2n1 [I-91] | < 10 |  | > 1000 |  | > 1000 |  |
| Nc1ncnc2c1ccn2[C@@H]1C[C@H](CCc2ccc3[nH]ccc3c2)[C@@H](O)[C@H]1O [I-92] | 100 to 1000 | > 1000 | > 1000 |  |  |  |
| Nc1ncnc2c1ccn2[C@@H]1C[C@H](CCc2ccc3[nH]c(=O)[nH]c3c2)[C@@H](O)[C@H]1O [I-93] | 10 to 100 | > 1000 | > 1000 |  |  |  |
| CN(C[C@H]1C[C@@H](n2ccc3c(N)ncnc32)[C@H](O)[C@@H]1O)c1ccc2ccc(N)nc2c1 [I-94] | < 10 | > 1000 | > 1000 |  |  |  |
| NC(=O)Nc1cccc(CC[C@H]2C[C@@H](n3ccc4c(N)ncnc43)[C@H](O)[C@@H]2O)c1 [I-95] | 100 to 1000 | > 1000 | > 1000 |  |  |  |
| Nc1ncnc2c1ccn2[C@@H]1C[C@H](CCc2cccc(NC(=O)C3CC3)c2)[C@@H](O)[C@H]1O [I-96] | 100 to 1000 | > 1000 | > 1000 |  |  |  |
| Nc1ccc2cc(CC[C@H]3C[C@@H](n4ccc5c(NCCc6ccccc6)ncnc54)[C@H](O)[C@@H]3O)ccc2n1 [I-97] | 100 to 1000 | > 1000 | > 1000 |  |  |  |
| CNC(=O)Nc1cccc(CC[C@H]2C[C@@H](n3ccc4c(N)ncnc43)[C@H](O)[C@@H]2O)c1 [I-99] | 100 to 1000 | > 1000 | > 1000 |  |  |  |
| Nc1cc2cc(CC[C@H]3C[C@@H](n4ccc5c(N)ncnc54)[C@H](O)[C@@H]3O)ccc2cn1 [I-100] | 10 to 100 | > 1000 | > 1000 |  |  |  |
| Nc1ncnc2c1ccn2[C@@H]1C[C@H](CCc2ccc3ccc(NCC4CC4)nc3c2)[C@@H](O)[C@H]1O [I-132] | < 10 |  |  |  | > 1000 |  |
| Nc1ncnc2c1ccn2[C@@H]1C[C@H](CCc2ccc3cccnc3c2)[C@@H](O)[C@H]1O [I-133] | < 10 |  |  |  | > 1000 |  |
| Nc1ccc2ccc(CC[C@H]3C[C@@H](n4ccc5c(NCCc6ccccc6)ncnc54)[C@H](O)[C@@H]3O)cc2n1 [I-134] | < 10 | > 1000 |  |  |  |  |
| Nc1ncnc2c1ccn2[C@@H]1C[C@H](CCc2ccc3ccccc3c2)[C@@H](O)[C@H]1O [I-136] | > 1000 | > 1000 |  |  |  |  |
| Nc1ncnc2c1ccn2[C@@H]1C[C@H](CCc2ccc3cc(Br)cnc3c2)[C@@H](O)[C@H]1O [I-137] | < 10 | > 1000 |  |  |  |  |
